From BindingDB's records for doi:10.1021/jm00015a003 (Warner-Lambert, 1995) come the findings set out here.

Structures are written as SMILES. Square brackets hold non-standard residues; d marks the D form. Peptide text beside a SMILES is read from it. dDip = N[C@@H](C(=O)O)C(c1ccccc1)c1ccccc1; Dip = N[C@H](C(=O)O)C(c1ccccc1)c1ccccc1; Orn = NCCC[C@H](N)C(=O)O

The nature of the assay: Inhibition of ET-1 stimulated arachidonic acid release in rabbit renal vascular smooth muscle cells.
For the compound `CC[C@H](C)[C@H](NC(=O)[C@H](C)NC(=O)[C@H](CC(C)C)NC(=O)[C@@H](NC(C)=O)C(c1ccccc1)c1ccccc1)C(=O)N[C@H](C(=O)N[C@@H](Cc1c[nH]c2ccccc12)C(=O)O)[C@@H](C)CC` [(S)-2-[(2S,3S)-2-((2S,3S)-2-{(S)-2-[(S)-2-((S)-2-Acetylamino-3,3-diphenyl-propionylamino)-4-methyl-pentanoylamino]-propionylamino}-3-methyl-pentanoylamino)-3-methyl-pentanoylamino]-3-(1H-indol-3-yl)-propionic acid] (Ac-[Dip]LAIIW-OH), the IC50 (usually the concentration that gives 50% inhibition) came to 0.07 µM. This counts as double-digit nanomolar.
The compound `CC[C@H](C)[C@H](NC(=O)[C@H](CC(=O)O)NC(=O)[C@@H](Cc1ccccc1)NC(=O)[C@@H](NC(C)=O)C(c1ccccc1)c1ccccc1)C(=O)N[C@H](C(=O)N[C@@H](Cc1c[nH]c2ccccc12)C(=O)O)[C@@H](C)CC` [(S)-3-[(R)-2-((S)-2-Acetylamino-3,3-diphenyl-propionylamino)-3-phenyl-propionylamino]-N-((1S,2S)-1-{(1S,2S)-1-[(S)-1-carboxy-2-(1H-indol-3-yl)-ethylcarbamoyl]-2-methyl-butylcarbamoyl}-2-methyl-butyl)-succinamic acid] returned a concentration for half-maximal inhibition (IC50) of 0.52 µM.
The compound `CC[C@H](C)[C@H](NC(=O)[C@H](CC(=O)O)NC(=O)[C@H](CC(C)C)NC(=O)[C@H](NC(C)=O)C(c1ccccc1)c1ccccc1)C(=O)N[C@H](C(=O)N[C@@H](Cc1c[nH]c2ccccc12)C(N)=O)[C@@H](C)CC` [(S)-3-[(S)-2-((S)-2-Acetylamino-3,3-diphenyl-propionylamino)-4-methyl-pentanoylamino]-N-((1S,2S)-1-{(1S,2S)-1-[(S)-1-carbamoyl-2-(1H-indol-3-yl)-ethylcarbamoyl]-2-methyl-butylcarbamoyl}-2-methyl-butyl)-succinamic acid] (Ac-[dDip]LDIIW-NH2) returned a 50% inhibitory concentration (IC50) of 6 µM.
Compound `CC[C@H](C)[C@H](NC(=O)[C@H](CC(=O)O)NC(=O)[C@H](CC(C)C)NC(=O)[C@H](NC(C)=O)C(c1ccccc1)c1ccccc1)C(=O)N[C@@H](Cc1ccccc1)C(=O)N[C@@H](Cc1c[nH]c2ccccc12)C(=O)O` [(S)-3-[(S)-2-((S)-2-Acetylamino-3,3-diphenyl-propionylamino)-4-methyl-pentanoylamino]-N-((1S,2S)-1-{(S)-1-[(S)-1-carboxy-2-(1H-indol-3-yl)-ethylcarbamoyl]-2-phenyl-ethylcarbamoyl}-2-methyl-butyl)-succinamic acid] yielded an IC50 above 10 µM.
For `CC[C@H](C)[C@H](NC(=O)[C@H](CC(=O)O)NC(=O)[C@H](CC(C)C)NC(=O)[C@H](NC(C)=O)C(c1ccccc1)c1ccccc1)C(=O)N[C@@H](CC(C)C)C(=O)N[C@@H](Cc1c[nH]c2ccccc12)C(=O)O` [(S)-3-[(S)-2-((S)-2-Acetylamino-3,3-diphenyl-propionylamino)-4-methyl-pentanoylamino]-N-((1S,2S)-1-{(S)-1-[(S)-1-carboxy-2-(1H-indol-3-yl)-ethylcarbamoyl]-3-methyl-butylcarbamoyl}-2-methyl-butyl)-succinamic acid] the value was 0.34 µM.
`CC[C@H](C)[C@H](NC(=O)[C@H](CC(=O)O)NC(=O)[C@H](CC(C)C)NC(=O)[C@@H](NC(C)=O)C(c1ccccc1)c1ccccc1)C(=O)N[C@@H](CCCCN)C(=O)N[C@@H](Cc1c[nH]c2ccccc12)C(=O)O` [(S)-3-[(S)-2-((S)-2-Acetylamino-3,3-diphenyl-propionylamino)-4-methyl-pentanoylamino]-N-((1S,2S)-1-{(S)-5-amino-1-[(S)-1-carboxy-2-(1H-indol-3-yl)-ethylcarbamoyl]-pentylcarbamoyl}-2-methyl-butyl)-succinamic acid] (Ac-[Dip]LDIKW-OH) returned a half-maximal inhibitory concentration (IC50) above 10 µM.
For `CC[C@H](C)[C@H](NC(=O)[C@@H](NC(=O)[C@H](CC(=O)O)NC(=O)[C@H](CC(C)C)NC(=O)[C@@H](NC(C)=O)C(c1ccccc1)c1ccccc1)C(C)C)C(=O)N[C@@H](Cc1c[nH]c2ccccc12)C(=O)O` [(S)-3-[(S)-2-((S)-2-Acetylamino-3,3-diphenyl-propionylamino)-4-methyl-pentanoylamino]-N-((S)-1-{(1S,2S)-1-[(S)-1-carboxy-2-(1H-indol-3-yl)-ethylcarbamoyl]-2-methyl-butylcarbamoyl}-2-methyl-propyl)-succinamic acid] (Ac-[Dip]LDVIW-OH) the value was 0.029 µM; for `CC[C@H](C)[C@H](NC(=O)[C@H](Cc1ccccc1)NC(=O)[C@H](CC(=O)O)NC(=O)[C@H](CC(C)C)NC(=O)[C@@H](NC(C)=O)C(c1ccccc1)c1ccccc1)C(=O)N[C@@H](Cc1c[nH]c2ccccc12)C(=O)O` [(S)-3-[(S)-2-((S)-2-Acetylamino-3,3-diphenyl-propionylamino)-4-methyl-pentanoylamino]-N-((S)-1-{(1S,2S)-1-[(S)-1-carboxy-2-(1H-indol-3-yl)-ethylcarbamoyl]-2-methyl-butylcarbamoyl}-2-phenyl-ethyl)-succinamic acid] (Ac-[Dip]LDFIW-OH), 0.16 µM; for `CC[C@H](C)[C@H](NC(=O)[C@H](C)NC(=O)[C@H](CC(=O)O)NC(=O)[C@H](CC(C)C)NC(=O)[C@H](NC(C)=O)C(c1ccccc1)c1ccccc1)C(=O)N[C@@H](Cc1c[nH]c2ccccc12)C(=O)O` [(S)-3-[(S)-2-((S)-2-Acetylamino-3,3-diphenyl-propionylamino)-4-methyl-pentanoylamino]-N-((S)-1-{(1S,2S)-1-[(S)-1-carboxy-2-(1H-indol-3-yl)-ethylcarbamoyl]-2-methyl-butylcarbamoyl}-ethyl)-succinamic acid], 0.42 µM.
The compound `CC[C@H](C)[C@H](NC(=O)[C@H](CCCCN)NC(=O)[C@H](CC(=O)O)NC(=O)[C@H](CC(C)C)NC(=O)[C@H](NC(C)=O)C(c1ccccc1)c1ccccc1)C(=O)N[C@@H](Cc1c[nH]c2ccccc12)C(=O)O` [(S)-3-[(S)-2-((S)-2-Acetylamino-3,3-diphenyl-propionylamino)-4-methyl-pentanoylamino]-N-((S)-5-amino-1-{(1S,2S)-1-[(S)-1-carboxy-2-(1H-indol-3-yl)-ethylcarbamoyl]-2-methyl-butylcarbamoyl}-pentyl)-succinamic acid] showed an IC50 above 10 µM.
`CC[C@H](C)[C@H](NC(=O)[C@H](CC(=O)O)NC(=O)[C@H](CC(C)C)NC(=O)[C@H](NC(C)=O)C(c1ccccc1)c1ccccc1)C(=O)N[C@H](C(=O)N[C@@H](Cc1ccccc1)C(=O)O)[C@@H](C)CC` [(S)-3-[(S)-2-((S)-2-Acetylamino-3,3-diphenyl-propionylamino)-4-methyl-pentanoylamino]-N-{(1S,2S)-1-[(1S,2S)-1-(1-carboxy-2-phenyl-ethylcarbamoyl)-2-methyl-butylcarbamoyl]-2-methyl-butyl}-succinamic acid] showed an IC50 above 10 µM.
Compound `CC[C@H](C)[C@H](NC(=O)[C@H](CC(=O)O)NC(=O)[C@H](CCCN)NC(=O)[C@@H](NC(C)=O)C(c1ccccc1)c1ccccc1)C(=O)N[C@H](C(=O)N[C@@H](Cc1c[nH]c2ccccc12)C(=O)O)[C@@H](C)CC` [(S)-3-[(S)-2-((S)-2-Acetylamino-3,3-diphenyl-propionylamino)-5-amino-pentanoylamino]-N-((1S,2S)-1-{(1S,2S)-1-[(S)-1-carboxy-2-(1H-indol-3-yl)-ethylcarbamoyl]-2-methyl-butylcarbamoyl}-2-methyl-butyl)-succinamic acid] (Ac-[Dip][Orn]DIIW-OH) returned a concentration for half-maximal inhibition (IC50) of 0.03 µM.
Compound `CC[C@H](C)[C@H](NC(=O)[C@H](CC(=O)O)NC(=O)[C@H](CCCNC(=N)N)NC(=O)[C@H](NC(C)=O)C(c1ccccc1)c1ccccc1)C(=O)N[C@H](C(=O)N[C@@H](Cc1c[nH]c2ccccc12)C(=O)O)[C@@H](C)CC` [(S)-3-[(S)-2-((S)-2-Acetylamino-3,3-diphenyl-propionylamino)-5-guanidino-pentanoylamino]-N-((1S,2S)-1-{(1S,2S)-1-[(S)-1-carboxy-2-(1H-indol-3-yl)-ethylcarbamoyl]-2-methyl-butylcarbamoyl}-2-methyl-butyl)-succinamic acid] yielded an IC50 of 0.014 µM.
In turn, `CC[C@H](C)[C@H](NC(=O)[C@H](CC(=O)O)NC(=O)[C@H](CCC(=O)O)NC(=O)[C@H](NC(C)=O)C(c1ccccc1)c1ccccc1)C(=O)N[C@H](C(=O)N[C@@H](Cc1c[nH]c2ccccc12)C(=O)O)[C@@H](C)CC` [(S)-4-((S)-2-Acetylamino-3,3-diphenyl-propionylamino)-4-[(S)-2-carboxy-1-((1S,2S)-1-{(1S,2S)-1-[(S)-1-carboxy-2-(1H-indol-3-yl)-ethylcarbamoyl]-2-methyl-butylcarbamoyl}-2-methyl-butylcarbamoyl)-ethylcarbamoyl]-butyric acid] (Ac-[dDip]EDIIW-OH) showed an IC50 of 0.13 µM. This IC50 is about 9.3-fold higher than that of the compound before.
For the compound `CC[C@H](C)[C@H](NC(=O)[C@H](CCC(=O)O)NC(=O)[C@H](CC(C)C)NC(=O)[C@@H](NC(C)=O)C(c1ccccc1)c1ccccc1)C(=O)N[C@H](C(=O)N[C@@H](Cc1c[nH]c2ccccc12)C(=O)O)[C@@H](C)CC` [(S)-4-[(S)-2-((S)-2-Acetylamino-3,3-diphenyl-propionylamino)-4-methyl-pentanoylamino]-4-((1S,2S)-1-{(1S,2S)-1-[(S)-1-carboxy-2-(1H-indol-3-yl)-ethylcarbamoyl]-2-methyl-butylcarbamoyl}-2-methyl-butylcarbamoyl)-butyric acid] (Ac-[Dip]LEIIW-OH), the IC50 turned out to be 0.43 µM.
Compound `CC[C@H](C)[C@H](NC(=O)[C@H](CCC(=O)O)NC(=O)[C@H](CC(=O)O)NC(=O)[C@H](CC(C)C)NC(=O)[C@H](NC(C)=O)C(c1ccccc1)c1ccccc1)C(=O)N[C@@H](Cc1c[nH]c2ccccc12)C(=O)O` [(S)-4-{(S)-2-[(S)-2-((S)-2-Acetylamino-3,3-diphenyl-propionylamino)-4-methyl-pentanoylamino]-3-carboxy-propionylamino}-4-{(1S,2S)-1-[(S)-1-carboxy-2-(1H-indol-3-yl)-ethylcarbamoyl]-2-methyl-butylcarbamoyl}-butyric acid] (Ac-[dDip]LDEIW-OH) returned an IC50 of 0.45 µM.
